Reference: patent US20250197428A1, “INHIBITORS OF KIF18A AND USES THEREOF” (ACCENT THERAPEUTICS, INC., priority 2022, published 2025)
Where two headings read alike, the source gives them in different places.

Assays:
KIF18A = KIF18A (Homo sapiens (Human), UniProt Q8NI77); assay: KIF18A Biochemical Assay (ATPase, ADP-Glo)
[1] = system: human megakaryocyte (CFU-MK) progenitors from human bone marrow mononuclear cells; assay: Human megakaryocyte progenitor colony formation assay (CFU-MK); type: cell-based; settings: 336 h, 14 days culture, adjusted for binding to assay buffer, read-out: Free-fraction adjusted CFU-MK IC50
OVCAR-3 xenografts = assay: 28 day in vivo efficacy in OVCAR-3 xenografts; set-up: species or system female NOD SCID mice; settings: day 28, 30 mg/kg once daily, oral
Protocol: Experiments were performed in female NOD SCID mice (GenPharmatech Co.). Animals were allowed to acclimate for 7 days before the study. The general health of the animals were evaluated by a veterinarian, and complete health checks were performed prior to the study. General procedures for animal care and housing were in accordance with the standard, Commission on Life Sciences, National Research Council, Standard Operating Procedures (SOPs) of Pharmaron, Inc. The mice were kept in laminar flow rooms at constant temperature and humidity with 3-5 mice in each cage. Animals were housed in polycarbonate cages which had dimensions of 300×180×150 mm^3 and in an environmentally monitored, well-ventilated room maintained at a temperature of 23±3° C. and a relative humidity of 40%-70%. Fluorescent lighting provided illumination approximately 12 hours per day. Animals had free access to irradiation sterilized dry granule food during the entire study period except for time periods specified by the protocol, as well as sterile drinking water in a bottle that was available ad libitum during the quarantine and study periods.
The OVCAR-3 (ATCC) tumor cell lines were maintained in vitro as a monolayer in RPMI 1640 medium supplemented with 20% heat inactivated FBS, at 37° C. in an atmosphere of 5% CO2 in air. The tumor cells were sub-cultured, not exceeding 4-5 passages, and cells growing in an exponential growth phase were harvested and counted for tumor inoculation. Each mouse was inoculated subcutaneously on the right flank with OVCAR-3 tumor cells (2×10^7) in 0.2 mL of RPMI-1640 with Matrigel (1:1) for model development.
Treatment was started when the mean tumor size reached approximately 150-200 mm^3, at which time the mice were randomized into treatment groups such that the average starting tumor size is similar for each treatment group. Animals were then treated with vehicle or indicated mg/kg (10-100) of compound at a given frequency (e.g., BID, QD, 4 days on treatment followed by 3 days off treatment) by oral gavage at a final dosing volume of 10 mL/kg.
The measurement of tumor size was conducted with a caliper and recorded twice per […] week. The tumor volume (TV) (mm^3) was estimated using the formula: TV=a×b^2/2, where “a” and “b” are long and short diameters of a tumor, respectively.
The TVs were used for calculation of the tumor growth inhibition and tumor growth delay. For the tumor growth inhibition (TGI), the value using the formula: […]
The “TVfinal” and “TVinitial” are the mean tumor volumes on the final day and initial day, respectively.
All statistical tests was conducted on GraphPad, and the level of significance was set at 5% or P<0.05. The group means and standard deviations were calculated for all measurement parameters. Two-way RM ANOVA followed by Tukeys post hoc comparisons of the means was applied among groups.
Additionally, after compound treatment, the animals were observed an additional 28 days without compound treatment.
The initial treatment period with Example 1 was 28 days, after which overall efficacy and tolerability were evaluated based on tumor volume and body weight changes observed during the treatment period (FIG. 2a and FIG. 2b).
The initial treatment period with Example 1 was 28 days, after which overall efficacy and tolerability were evaluated based on tumor volume and body weight changes observed during the treatment period (FIG. 3a and FIG. 3b).

[2] = Bone marrow concentration in 28 day OVCAR-3 xenograft study; type: in vivo, mice; settings: NOD SCID, mouse, 28 day study; for concentration at 6 h: read-out: Bone marrow concentration at 6 h post-last dose; for concentration at 24 h: read-out: Bone marrow concentration at 24 h post-last dose
Protocol: On Day 28, tissues were collected from animals. About 30-60 μL of whole blood was collected into tubes containing EDTA anticoagulant, and plasma was harvested by centrifugation at 4,000 g×5 min and stored at −80° C. until analysis. Plasma analysis followed the same protocol as for the Day 1 plasma analysis. Additionally, the femurs of the mice were cut and put in pre-weighed tubes. The bone marrow was harvested by centriguation at 8,000 g×15 min. Then, the total weight of both the bone marrow and the tube was recorded. The bone marrow was stored at −80° C. until analysis.
Samples were collected from animals 6 h after the last dose of compound and at 24 h after the last dose of compound.

Chain of KIF18A (Q8NI77 1-367): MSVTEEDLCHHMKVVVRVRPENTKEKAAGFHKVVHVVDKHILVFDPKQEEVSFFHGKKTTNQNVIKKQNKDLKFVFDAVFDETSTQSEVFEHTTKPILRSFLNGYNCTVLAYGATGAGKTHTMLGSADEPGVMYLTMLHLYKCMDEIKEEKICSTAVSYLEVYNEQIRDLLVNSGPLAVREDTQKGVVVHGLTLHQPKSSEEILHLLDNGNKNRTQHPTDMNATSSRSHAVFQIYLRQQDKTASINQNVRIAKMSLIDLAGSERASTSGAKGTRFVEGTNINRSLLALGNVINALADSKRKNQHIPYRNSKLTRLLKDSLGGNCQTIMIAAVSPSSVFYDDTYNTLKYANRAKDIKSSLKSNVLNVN
Chain of KIF18A (P02550 whole entry partner): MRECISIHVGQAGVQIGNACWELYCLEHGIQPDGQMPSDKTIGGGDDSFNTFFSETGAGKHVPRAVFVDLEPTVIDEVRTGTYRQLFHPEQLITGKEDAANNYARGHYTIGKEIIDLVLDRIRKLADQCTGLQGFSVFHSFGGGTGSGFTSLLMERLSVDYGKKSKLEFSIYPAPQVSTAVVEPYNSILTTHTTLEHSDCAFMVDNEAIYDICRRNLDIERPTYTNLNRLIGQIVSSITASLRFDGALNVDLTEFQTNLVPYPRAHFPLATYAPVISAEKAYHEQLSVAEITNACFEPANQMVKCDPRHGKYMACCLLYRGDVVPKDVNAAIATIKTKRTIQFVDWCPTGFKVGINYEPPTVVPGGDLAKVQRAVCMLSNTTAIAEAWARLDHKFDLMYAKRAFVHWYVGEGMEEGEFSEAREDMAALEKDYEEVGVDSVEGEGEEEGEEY
Chain of KIF18A (P02554 whole entry partner): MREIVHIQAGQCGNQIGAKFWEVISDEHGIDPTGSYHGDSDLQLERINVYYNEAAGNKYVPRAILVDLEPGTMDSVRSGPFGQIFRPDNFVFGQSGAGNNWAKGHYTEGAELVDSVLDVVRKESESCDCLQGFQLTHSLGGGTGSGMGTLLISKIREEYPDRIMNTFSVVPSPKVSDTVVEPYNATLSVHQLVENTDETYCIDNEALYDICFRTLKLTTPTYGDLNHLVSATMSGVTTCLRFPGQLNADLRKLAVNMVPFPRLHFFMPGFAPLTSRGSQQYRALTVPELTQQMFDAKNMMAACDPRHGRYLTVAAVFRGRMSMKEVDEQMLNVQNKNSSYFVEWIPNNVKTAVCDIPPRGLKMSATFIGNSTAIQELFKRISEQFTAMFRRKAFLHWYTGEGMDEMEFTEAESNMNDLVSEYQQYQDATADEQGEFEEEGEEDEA

Question: What does the source list for Cc1cc(NC(=O)c2ccc(NS(=O)(=O)CCO)cc2N2CC[C@@]3(C(F)F)C[C@H]3C2)nc(N2CCC(F)(F)CC2)n1 (single isomer, unassigned) [Example 29b]?
Answer: IC50 (KIF18A): < 100 nM; IC50 [1]: 110 nM; % T/C (OVCAR-3 xenografts): 1%; % TGI (OVCAR-3 xenografts): 99%; concentration at 6 h ([2]; 10 mg/kg QD oral): 2800 ng/g; concentration at 24 h ([2]; 10 mg/kg QD oral): 210 ng/g; concentration at 6 h ([2]; 30 mg/kg QD oral): 10500 ng/g; concentration at 24 h ([2]; 30 mg/kg QD oral): 900 ng/g
